Measured values reported in ChEMBL document CHEMBL1201861, “Genomics of Drug Sensitity in Cancer screening data, Wellcome Trust Sanger Institute”.

Columns and labels:
Assay in all cases: cells
[1] = test system: SCC-25; type: functional, cell-based, Homo sapiens; details: Homo sapiens, SCC-25;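 further: growth inhibition of SCC-25 cells, measured with a cell viability assay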
Description: SANGER: Inhibition of human SCC-25 cell growth in a cell viability assay.

[2] = test system: A 172; type: functional, cell-based, Homo sapiens; details: Homo sapiens, A 172;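 further: growth inhibition of A172 cells, measured with a cell viability readout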
Description: SANGER: Inhibition of human A172 cell growth in a cell viability assay.

[3] = test system: OVCAR-8; type: functional, cell-based, Homo sapiens; details: Homo sapiens, OVCAR-8;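 further: growth inhibition of human OVCAR-8 cells, read out by a cell viability assay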
Description: SANGER: Inhibition of human OVCAR-8 cell growth in a cell viability assay.

[4] = test system: QIMR-WIL; type: functional, cell-based; details: Homo sapiens;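 further: growth inhibition of QIMR-WIL cells, read out with a cell viability assay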
Description: SANGER: Inhibition of human QIMR-WIL cell growth in a cell viability assay.

[5] = test system: LNCaP-Clone-FGC; type: functional, cell-based, Homo sapiens; details: Homo sapiens, LNCaP-Clone-FGC
Description: SANGER: Inhibition of human LNCaP-Clone-FGC cell growth in a cell viability assay.

[6] = test system: HuP-T3; type: functional, cell-based, Homo sapiens; details: Homo sapiens, HuP-T3;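 further: HuP-T3 cell growth inhibition, read out with a cell viability assay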
Description: SANGER: Inhibition of human HuP-T3 cell growth in a cell viability assay.

[7] = test system: SNU-387; type: functional, cell-based, Homo sapiens; details: Homo sapiens, SNU-387
Description: SANGER: Inhibition of human SNU-387 cell growth in a cell viability assay.

[8] = test system: SW1463; type: functional, cell-based, Homo sapiens; details: Homo sapiens, SW1463;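 further: growth inhibition of SW1463 cells, determined with a cell viability assay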
Description: SANGER: Inhibition of human SW1463 cell growth in a cell viability assay.

[9] = test system: SK-MEL3; type: functional, cell-based, Homo sapiens, SK-MEL-3; details: Homo sapiens, SK-MEL3;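 further: growth inhibition of human SK-MEL-3 cells, read out with a cell viability assay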
Description: SANGER: Inhibition of human SK-MEL-3 cell growth in a cell viability assay.

[10] = test system: NCI-H23; type: functional, cell-based, Homo sapiens; details: Homo sapiens, NCI-H23;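 further: cell viability assay measuring growth inhibition of NCI-H23 cells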
Description: SANGER: Inhibition of human NCI-H23 cell growth in a cell viability assay.

[11] = test system: UACC-257; type: functional, cell-based, Homo sapiens; details: Homo sapiens, UACC-257
Description: SANGER: Inhibition of human UACC-257 cell growth in a cell viability assay.

[12] = test system: COR-L88; type: functional, cell-based; details: Homo sapiens;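 further: growth inhibition of COR-L88 cells, read out with a cell viability assay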
Description: SANGER: Inhibition of human COR-L88 cell growth in a cell viability assay.

[13] = test system: NB69; type: functional, cell-based, Homo sapiens; details: Homo sapiens, NB69;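 further: growth inhibition of NB69 cells, determined by a cell viability assay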
Description: SANGER: Inhibition of human NB69 cell growth in a cell viability assay.

[14] = test system: TE-5; type: functional, cell-based, Homo sapiens; details: Homo sapiens, TE-5;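 further: inhibition of cell growth, read out by a cell viability assay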
Description: SANGER: Inhibition of human TE-5 cell growth in a cell viability assay.

[15] = test system: SW1417; type: functional, cell-based, Homo sapiens; details: Homo sapiens, SW1417;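 further: growth inhibition of human SW1417 cells, read out with a cell viability assay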
Description: SANGER: Inhibition of human SW1417 cell growth in a cell viability assay.

[16] = test system: COR-L23; type: functional, cell-based, Homo sapiens; details: Homo sapiens, COR-L23;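 further: cell viability assay measuring how strongly compounds suppress growth of COR-L23 cells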
Description: SANGER: Inhibition of human COR-L23 cell growth in a cell viability assay.

[17] = test system: MFM-223; type: functional, cell-based, Homo sapiens; details: Homo sapiens, MFM-223
Description: SANGER: Inhibition of human MFM-223 cell growth in a cell viability assay.

[18] = test system: NCI-H358; type: functional, cell-based, Homo sapiens; details: Homo sapiens, NCI-H358;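 further: growth inhibition of NCI-H358 human cells, read out with a cell viability assay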
Description: SANGER: Inhibition of human NCI-H358 cell growth in a cell viability assay.

[19] = test system: U2OS; type: functional, cell-based, Homo sapiens, U-2-OS; details: Homo sapiens, U2OS;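 further: growth inhibition of human U-2-OS cells, determined with a cell viability assay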
Description: SANGER: Inhibition of human U-2-OS cell growth in a cell viability assay.

[20] = test system: IST-MES1; type: functional, cell-based, Homo sapiens; details: Homo sapiens, IST-MES1;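 further: growth inhibition of IST-MES1 cells, measured with a cell viability assay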
Description: SANGER: Inhibition of human IST-MES1 cell growth in a cell viability assay.

[21] = test system: COR-L105; type: functional, cell-based, Homo sapiens; details: Homo sapiens, COR-L105;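 further: cell growth inhibition determined with a viability assay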
Description: SANGER: Inhibition of human COR-L105 cell growth in a cell viability assay.

[22] = test system: EW-1; type: functional, cell-based, Homo sapiens; details: Homo sapiens, EW-1;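 further: growth inhibition of the human EW-1 cell line, read out by a cell viability assay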
Description: SANGER: Inhibition of human EW-1 cell growth in a cell viability assay.

[23] = test system: EFO-27; type: functional, cell-based, Homo sapiens; details: Homo sapiens, EFO-27;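 further: growth inhibition of EFO-27 cells, read out with a cell viability assay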
Description: SANGER: Inhibition of human EFO-27 cell growth in a cell viability assay.

[24] = test system: MLMA; type: functional, cell-based, Homo sapiens; details: Homo sapiens, MLMA;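 further: growth inhibition of MLMA cells (human), determined through a cell viability readout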
Description: SANGER: Inhibition of human MLMA cell growth in a cell viability assay.

[25] = test system: HDLM-2; type: functional, cell-based; details: Homo sapiens;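 further: cell viability assay measuring suppression of HDLM-2 proliferation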
Description: SANGER: Inhibition of human HDLM-2 cell growth in a cell viability assay.

[26] = test system: NCI-H1304; type: functional, cell-based; details: Homo sapiens;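 further: growth inhibition of the cancer cell line, measured in a cell viability assay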
Description: SANGER: Inhibition of human NCI-H1304 cell growth in a cell viability assay.

[27] = test system: EW-24; type: functional, cell-based; details: Homo sapiens;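 further: human EW-24 cancer cell line, growth inhibition read out via a cell viability assay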
Description: SANGER: Inhibition of human EW-24 cell growth in a cell viability assay.

[28] = test system: ABC-1; type: functional, cell-based, Homo sapiens; details: Homo sapiens, ABC-1;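 further: growth inhibition of human ABC-1 cells, read out by a cell viability assay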
Description: SANGER: Inhibition of human ABC-1 cell growth in a cell viability assay.

[29] = test system: BFTC-905; type: functional, cell-based, Homo sapiens; details: Homo sapiens, BFTC-905
Description: SANGER: Inhibition of human BFTC-905 cell growth in a cell viability assay.

[30] = test system: GAMG; type: functional, cell-based, Homo sapiens; details: Homo sapiens, GAMG;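 further: cell growth inhibition measured by a viability assay in the GAMG human cell line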
Description: SANGER: Inhibition of human GAMG cell growth in a cell viability assay.

[31] = test system: COLO-668; type: functional, cell-based, Homo sapiens; details: Homo sapiens, COLO-668
Description: SANGER: Inhibition of human COLO-668 cell growth in a cell viability assay.

[32] = test system: TE-10; type: functional, cell-based, Homo sapiens; details: Homo sapiens, TE-10;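 further: growth inhibition of TE-10 cells, measured by a cell viability assay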
Description: SANGER: Inhibition of human TE-10 cell growth in a cell viability assay.

[33] = test system: RPMI-8866; type: functional, cell-based; details: Homo sapiens
Description: SANGER: Inhibition of human RPMI-8866 cell growth in a cell viability assay.

[34] = test system: MCF7; type: functional, cell-based, Homo sapiens; details: Homo sapiens, MCF7;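 further: growth inhibition of human MCF7 cells, read out with a cell viability assay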
Description: SANGER: Inhibition of human MCF7 cell growth in a cell viability assay.

[35] = test system: HuP-T4; type: functional, cell-based, Homo sapiens; details: Homo sapiens, HuP-T4;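 further: cell viability assay measuring how much HuP-T4 cell growth is inhibited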
Description: SANGER: Inhibition of human HuP-T4 cell growth in a cell viability assay.

[36] = test system: NCI-H209; type: functional, cell-based; details: Homo sapiens;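 further: growth inhibition of human NCI-H209 cells, measured by a cell viability assay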
Description: SANGER: Inhibition of human NCI-H209 cell growth in a cell viability assay.

[37] = test system: NCI-H1651; type: functional, cell-based, Homo sapiens; details: Homo sapiens, NCI-H1651;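 further: Read-out is a cell viability assay, with IC50 expressing inhibition of NCI-H1651 cell growth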
Description: SANGER: Inhibition of human NCI-H1651 cell growth in a cell viability assay.

[38] = test system: U-118-MG; type: functional, cell-based, Homo sapiens; details: Homo sapiens, U-118-MG
Description: SANGER: Inhibition of human U-118-MG cell growth in a cell viability assay.

[39] = test system: EW-18; type: functional, cell-based; details: Homo sapiens;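 further: growth inhibition of EW-18 cells, read out by a cell viability assay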
Description: SANGER: Inhibition of human EW-18 cell growth in a cell viability assay.

[40] = test system: NCI-H1355; type: functional, cell-based, Homo sapiens; details: Homo sapiens, NCI-H1355;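 further: growth inhibition of human NCI-H1355 cells, read out by a cell viability assay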
Description: SANGER: Inhibition of human NCI-H1355 cell growth in a cell viability assay.

[41] = test system: IST-MEL1; type: functional, cell-based, Homo sapiens; details: Homo sapiens, IST-MEL1;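 further: growth inhibition of the cell line, read out with a cell viability assay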
Description: SANGER: Inhibition of human IST-MEL1 cell growth in a cell viability assay.

[42] = test system: NB6; type: functional, cell-based, Homo sapiens; details: Homo sapiens, NB6;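 further: growth inhibition of NB6 cells, read out by a cell viability assay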
Description: SANGER: Inhibition of human NB6 cell growth in a cell viability assay.

[43] = test system: KYSE-180; type: functional, cell-based, Homo sapiens; details: Homo sapiens, KYSE-180;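 further: growth inhibition of KYSE-180 cells, read out with a cell viability assay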
Description: SANGER: Inhibition of human KYSE-180 cell growth in a cell viability assay.

[44] = test system: CAPAN-1; type: functional, cell-based, Homo sapiens; details: Homo sapiens, CAPAN-1;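 further: growth suppression of CAPAN-1 cells, read out by a cell viability assay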
Description: SANGER: Inhibition of human CAPAN-1 cell growth in a cell viability assay.

[45] = test system: SK-N-FI; type: functional, cell-based, Homo sapiens; details: Homo sapiens, SK-N-FI;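 further: cell viability assay measuring growth inhibition of human SK-N-FI cells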
Description: SANGER: Inhibition of human SK-N-FI cell growth in a cell viability assay.

[46] = test system: BHY; type: functional, cell-based, Homo sapiens; details: Homo sapiens, BHY;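 further: cell growth inhibition read out by a viability assay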
Description: SANGER: Inhibition of human BHY cell growth in a cell viability assay.

[47] = test system: M059J; type: functional, cell-based, Homo sapiens; details: Homo sapiens, M059J;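 further: growth inhibition of M059J cells, read out with a cell viability assay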
Description: SANGER: Inhibition of human M059J cell growth in a cell viability assay.

[48] = test system: CCRF-CEM; type: functional, cell-based; details: Homo sapiens;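 further: inhibition of CCRF-CEM cell growth, measured by a cell viability assay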
Description: SANGER: Inhibition of human CCRF-CEM cell growth in a cell viability assay.

[49] = test system: GMS-10; type: functional, cell-based, Homo sapiens; details: Homo sapiens, GMS-10;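 further: growth inhibition of GMS-10 cells, read out as cell viability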
Description: SANGER: Inhibition of human GMS-10 cell growth in a cell viability assay.

[50] = test system: CAL-27; type: functional, cell-based, Homo sapiens; details: Homo sapiens, CAL-27;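 further: Viability-based readout, IC50 reflecting inhibition of CAL-27 cell growth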
Description: SANGER: Inhibition of human CAL-27 cell growth in a cell viability assay.

Compound: Cc1cnc(-c2cnc(NCCNc3ccc(C#N)cn3)nc2-c2ccc(Cl)cc2Cl)[nH]1 [LADUVIGLUSIB]
- IC50 [1]: > 2560 nM
- IC50 [2]: > 2560 nM
- IC50 [3]: > 2560 nM
- IC50 [4]: > 2560 nM
- IC50 [5]: > 2560 nM
- IC50 [6]: > 2560 nM
- IC50 [7]: > 2560 nM
- IC50 [8]: > 2560 nM
- IC50 [9]: > 2560 nM
- IC50 [10]: > 2560 nM
- IC50 [11]: > 2560 nM
- IC50 [12]: > 2560 nM
- IC50 [13]: > 2560 nM
- IC50 [14]: > 2560 nM
- IC50 [15]: > 2560 nM
- IC50 [16]: > 2560 nM
- IC50 [17]: > 2560 nM
- IC50 [18]: > 2560 nM
- IC50 [19]: > 2560 nM
- IC50 [20]: > 2560 nM
- IC50 [21]: > 2560 nM
- IC50 [22]: > 2560 nM
- IC50 [23]: > 2560 nM
- IC50 [24]: > 2560 nM
- IC50 [25]: > 2560 nM
- IC50 [26]: > 2560 nM
- IC50 [27]: > 2560 nM
- IC50 [28]: > 2560 nM
- IC50 [29]: > 2560 nM
- IC50 [30]: > 2560 nM
- IC50 [31]: > 2560 nM
- IC50 [32]: > 2560 nM
- IC50 [33]: > 2560 nM
- IC50 [34]: > 2560 nM
- IC50 [35]: > 2560 nM
- IC50 [36]: > 2560 nM
- IC50 [37]: > 2560 nM
- IC50 [38]: > 2560 nM
- IC50 [39]: > 2560 nM
- IC50 [40]: > 2560 nM
- IC50 [41]: > 2560 nM
- IC50 [42]: > 2560 nM
- IC50 [43]: 1730 nM
- IC50 [44]: > 2560 nM
- IC50 [45]: > 2560 nM
- IC50 [46]: > 2560 nM
- IC50 [47]: > 2560 nM
- IC50 [48]: > 2560 nM
- IC50 [49]: > 2560 nM
- IC50 [50]: > 2560 nM

Compound: C[C@]1(O)C[C@@H](c2nc(-c3ccc4ccc(-c5ccccc5)nc4c3)c3c(N)nccn32)C1 [LINSITINIB]
- IC50 [1]: > 2560 nM
- IC50 [2]: > 2560 nM
- IC50 [3]: > 2560 nM
- IC50 [4]: > 2560 nM
- IC50 [5]: > 2560 nM
- IC50 [6]: > 2560 nM
- IC50 [7]: 994 nM
- IC50 [8]: > 2560 nM
- IC50 [9]: 1490 nM
- IC50 [10]: > 2560 nM
- IC50 [11]: > 2560 nM
- IC50 [12]: > 2560 nM
- IC50 [13]: 583 nM
- IC50 [14]: > 2560 nM
- IC50 [15]: > 2560 nM
- IC50 [16]: > 2560 nM
- IC50 [17]: > 2560 nM
- IC50 [18]: 671 nM
- IC50 [19]: > 2560 nM
- IC50 [20]: > 2560 nM
- IC50 [21]: > 2560 nM
- IC50 [22]: 85.8 nM
- IC50 [23]: > 2560 nM
- IC50 [24]: > 2560 nM
- IC50 [25]: > 2560 nM
- IC50 [26]: > 2560 nM
- IC50 [27]: > 2560 nM
- IC50 [28]: 904 nM
- IC50 [29]: 468 nM
- IC50 [30]: > 2560 nM
- IC50 [31]: 847 nM
- IC50 [32]: > 2560 nM
- IC50 [33]: > 2560 nM
- IC50 [34]: > 2560 nM
- IC50 [35]: > 2560 nM
- IC50 [36]: > 2560 nM
- IC50 [37]: > 2560 nM
- IC50 [38]: > 2560 nM
- IC50 [39]: 270 nM
- IC50 [40]: 181 nM
- IC50 [41]: > 2560 nM
- IC50 [42]: > 2560 nM
- IC50 [43]: > 2560 nM
- IC50 [44]: > 2560 nM
- IC50 [45]: > 2560 nM
- IC50 [46]: > 2560 nM
- IC50 [47]: > 2560 nM
- IC50 [48]: > 2560 nM
- IC50 [49]: > 2560 nM
- IC50 [50]: > 2560 nM

Compound: C=CCc1cccc(/C=N/NC(=O)CN2CCN(Cc3ccccc3)CC2)c1O [PAC-1]
- IC50 [1]: > 2560 nM
- IC50 [2]: > 2560 nM
- IC50 [3]: > 2560 nM
- IC50 [4]: > 2560 nM
- IC50 [5]: > 2560 nM
- IC50 [6]: > 2560 nM
- IC50 [7]: > 2560 nM
- IC50 [8]: > 2560 nM
- IC50 [9]: > 2560 nM
- IC50 [10]: > 2560 nM
- IC50 [11]: > 2560 nM
- IC50 [12]: > 2560 nM
- IC50 [13]: > 2560 nM
- IC50 [14]: > 2560 nM
- IC50 [15]: > 2560 nM
- IC50 [16]: > 2560 nM
- IC50 [17]: > 2560 nM
- IC50 [18]: 1240 nM
- IC50 [19]: > 2560 nM
- IC50 [20]: > 2560 nM
- IC50 [21]: > 2560 nM
- IC50 [22]: > 2560 nM
- IC50 [23]: > 2560 nM
- IC50 [24]: > 2560 nM
- IC50 [25]: 1810 nM
- IC50 [26]: > 2560 nM
- IC50 [27]: > 2560 nM
- IC50 [28]: > 2560 nM
- IC50 [29]: > 2560 nM
- IC50 [30]: > 2560 nM
- IC50 [31]: > 2560 nM
- IC50 [32]: > 2560 nM
- IC50 [33]: > 2560 nM
- IC50 [34]: > 2560 nM
- IC50 [35]: > 2560 nM
- IC50 [36]: > 2560 nM
- IC50 [37]: > 2560 nM
- IC50 [38]: > 2560 nM
- IC50 [39]: > 2560 nM
- IC50 [40]: > 2560 nM
- IC50 [41]: > 2560 nM
- IC50 [42]: > 2560 nM
- IC50 [43]: > 2560 nM
- IC50 [44]: > 2560 nM
- IC50 [45]: > 2560 nM
- IC50 [46]: > 2560 nM
- IC50 [47]: > 2560 nM
- IC50 [48]: 566 nM
- IC50 [49]: > 2560 nM
- IC50 [50]: > 2560 nM
